From the supplement of paper PMC10627819

Tests used:
[1] = system: S. aureus Newman; assay: fitness (endpoint OD595 vs no drug) (fraction); higher = more growth
Outline: (§1)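 Fitness was measured as bacterial growth in 384-well plates inoculated at OD595 0.01 (30 µl, or 55 µl for S. pneumoniae). Media were TSB, LB Lennox or CY, at 37 °C. OD595 was read every 30 min for 14 h and background-subtracted against the first reading. Fitness is OD595 at the transition into stationary phase divided by the robust mean of no-drug control wells, capped at 1.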

[2] = system: S. aureus DSM 20231; assay: Bliss interaction score (quartile over a dose matrix) (fitness difference); higher = more antagonism (negative = synergy)
Outline: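 Fitness is OD595 at stationary-phase entry relative to the plate's robust no-drug mean, capped at 1. Single-drug fitness was inferred from combinations. The Bliss score is observed minus product-expected fitness, summarised by quartiles over technical, biological and donor/recipient replicates.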

[3] = system: S. aureus DSM 20231; assay: fitness (endpoint OD595 vs no drug) (fraction); higher = more growth
Outline: as §1

[4] = system: S. pneumoniae D39V; assay: as above
Outline: as §1
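Throughout, for Bliss interaction score (quartile over a dose matrix): first quartile when negative (synergy) and third quartile when positive (antagonism).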

CC1(C)S[C@@H]2[C@H](NC(=O)[C@H](N)c3ccc(O)cc3)C(=O)N2[C@H]1C(=O)O [Amoxicillin] + CC1(C)S[C@@H]2[C@H](NC(=O)Cc3ccccc3)C(=O)N2[C@H]1C(=O)O [Penicillin G]
fitness, [1]
Conditions	first compound 0.0625 µg/mL	first compound 0.125 µg/mL	first compound 0.25 µg/mL
partner 0.0195 µg/mL	0.845	0.855	–
partner 0.039 µg/mL	0.878	0.833	0.797
partner 0.078 µg/mL	0.796	0.801	0.807

CC1(C)S[C@@H]2[C@H](NC(=O)[C@H](N)c3ccc(O)cc3)C(=O)N2[C@H]1C(=O)O [Amoxicillin] + CC(=O)Oc1cccc2c1C(=O)c1c(OC(C)=O)cc(C(=O)O)cc1C2=O [Diacerein]
Conditions	Bliss interaction score
[2]	-0.192

CC1(C)S[C@@H]2[C@H](NC(=O)[C@H](N)c3ccc(O)cc3)C(=O)N2[C@H]1C(=O)O [Amoxicillin] + CC(=O)Oc1ccccc1C(=O)O [Acetylsalicylic acid]
fitness
Conditions	first compound 0.0008 µg/mL	first compound 0.0015 µg/mL	first compound 0.003 µg/mL	first compound 0.0625 µg/mL	first compound 0.125 µg/mL	first compound 0.25 µg/mL	first compound 0.5 µg/mL
[3], partner 250 µg/mL	–	–	–	0.511	0.448	0.0498	0.0014
[3], partner 500 µg/mL	–	–	–	0.449	0.395	0.05	0.0115
[3], partner 1000 µg/mL	–	–	–	0.144	0.284	0.0643	0.0095
[4], partner 250 µg/mL	0.958	0.975	0.919	–	–	–	–
[4], partner 500 µg/mL	0.939	0.923	0.905	–	–	–	–
[4], partner 1000 µg/mL	0.774	0.896	0.865	–	–	–	–

[4], first compound 0.006 µg/mL, one replicate
Conditions	fitness
partner 250 µg/mL	0.465
partner 500 µg/mL	0.507
partner 1000 µg/mL	0.483

CC1(C)S[C@@H]2[C@H](NC(=O)[C@H](N)c3ccc(O)cc3)C(=O)N2[C@H]1C(=O)O [Amoxicillin] + CC/C(=C(\c1ccccc1)c1ccc(OCCN(C)C)cc1)c1ccccc1 [Tamoxifene]
Conditions	Bliss interaction score
[2]	-0.148

CC1(C)S[C@@H]2[C@H](NC(=O)[C@H](N)c3ccc(O)cc3)C(=O)N2[C@H]1C(=O)O [Amoxicillin] + CCN(CC)CCOc1ccc(C(=C(Cl)c2ccccc2)c2ccccc2)cc1 [Clomiphene]
Conditions	Bliss interaction score
[2]	-0.255

CC1(C)S[C@@H]2[C@H](NC(=O)[C@H](N)c3ccc(O)cc3)C(=O)N2[C@H]1C(=O)O [Amoxicillin] + CN(C)[C@@H]1C(O)=C(C(N)=O)C(=O)[C@@]2(O)C(O)=C3C(=O)c4c(O)ccc(Cl)c4[C@@](C)(O)[C@H]3C[C@@H]12 [Chlortetracycline]
fitness
Conditions	partner 0.012 µg/mL	partner 0.024 µg/mL	partner 0.048 µg/mL	partner 0.375 µg/mL	partner 0.75 µg/mL	partner 1.5 µg/mL
[3], first compound 0.0625 µg/mL	0.421	0.169	0.0806	–	–	–
[3], first compound 0.125 µg/mL	0.236	0.127	0.0782	–	–	–
[3], first compound 0.25 µg/mL	0.0422	0.0199	0.0289	–	–	–
[3], first compound 0.5 µg/mL	0.0037	0.0085	0.0227	–	–	–
[4], first compound 0.0008 µg/mL	–	–	–	0.0877	0.0924	0.0983
[4], first compound 0.0015 µg/mL	0.845	0.854	0.887	0.119	0.0947	0.123
[4], first compound 0.003 µg/mL	0.808	0.804	0.85	0.0652	0.045	0.0882

one replicate
Conditions	fitness
[3], first compound 0.125 µg/mL, partner 0.006 µg/mL	0.402
[3], first compound 0.25 µg/mL, partner 0.006 µg/mL	0.052
[3], first compound 0.5 µg/mL, partner 0.006 µg/mL	0
[4], first compound 0.0008 µg/mL, partner 0.012 µg/mL	0.904
[4], first compound 0.0008 µg/mL, partner 0.024 µg/mL	0.844
[4], first compound 0.0008 µg/mL, partner 0.048 µg/mL	0.853
[4], first compound 0.006 µg/mL, partner 0.012 µg/mL	0.482
[4], first compound 0.006 µg/mL, partner 0.024 µg/mL	0.45
[4], first compound 0.006 µg/mL, partner 0.048 µg/mL	0.378

CC1(C)S[C@@H]2[C@H](NC(=O)[C@H](N)c3ccc(O)cc3)C(=O)N2[C@H]1C(=O)O [Amoxicillin] + CO[C@@]12[C@H](COC(N)=O)C3=C(C(=O)C(C)=C(N)C3=O)N1C[C@@H]1N[C@@H]12 [Mitomycin C]
Conditions	fitness
[1], first compound 0.0625 µg/mL, partner 0.0156 µg/mL	0.67
[1], first compound 0.0625 µg/mL, partner 0.0312 µg/mL	0.646
[1], first compound 0.0625 µg/mL, partner 0.0625 µg/mL	0.502
[1], first compound 0.125 µg/mL, partner 0.0156 µg/mL	0.714
[1], first compound 0.125 µg/mL, partner 0.0312 µg/mL	0.649
[1], first compound 0.125 µg/mL, partner 0.0625 µg/mL	0.465
[1], first compound 0.25 µg/mL, partner 0.0312 µg/mL	0.627
[3], first compound 0.0625 µg/mL, partner 0.0156 µg/mL	0.522
[3], first compound 0.0625 µg/mL, partner 0.0312 µg/mL	0.467
[3], first compound 0.0625 µg/mL, partner 0.0625 µg/mL	0.31
[3], first compound 0.125 µg/mL, partner 0.0156 µg/mL	0.359
[3], first compound 0.125 µg/mL, partner 0.0312 µg/mL	0.226
[3], first compound 0.125 µg/mL, partner 0.0625 µg/mL	0.0925
[3], first compound 0.25 µg/mL, partner 0.0156 µg/mL	0.0215
[3], first compound 0.25 µg/mL, partner 0.0312 µg/mL	0.0317
[3], first compound 0.25 µg/mL, partner 0.0625 µg/mL	0.0251
[3], first compound 0.5 µg/mL, partner 0.0156 µg/mL	0.0035
[3], first compound 0.5 µg/mL, partner 0.0312 µg/mL	0.0009
[3], first compound 0.5 µg/mL, partner 0.0625 µg/mL	0.0008
[4], first compound 0.0008 µg/mL, partner 0.001075 µg/mL	≥ 1
[4], first compound 0.0008 µg/mL, partner 0.00215 µg/mL	0.895
[4], first compound 0.0008 µg/mL, partner 0.0043 µg/mL	0.799
[4], first compound 0.0015 µg/mL, partner 0.001075 µg/mL	0.994
[4], first compound 0.0015 µg/mL, partner 0.002 µg/mL	0.778
[4], first compound 0.0015 µg/mL, partner 0.00215 µg/mL	0.876
[4], first compound 0.0015 µg/mL, partner 0.004 µg/mL	0.836
[4], first compound 0.0015 µg/mL, partner 0.0043 µg/mL	0.816
[4], first compound 0.0015 µg/mL, partner 0.008 µg/mL	0.674
[4], first compound 0.003 µg/mL, partner 0.001075 µg/mL	0.938
[4], first compound 0.003 µg/mL, partner 0.002 µg/mL	0.702
[4], first compound 0.003 µg/mL, partner 0.00215 µg/mL	0.832
[4], first compound 0.003 µg/mL, partner 0.004 µg/mL	0.728
[4], first compound 0.003 µg/mL, partner 0.0043 µg/mL	0.761
[4], first compound 0.003 µg/mL, partner 0.008 µg/mL	0.617

fitness, [4], one replicate
Conditions	partner 0.002 µg/mL	partner 0.004 µg/mL	partner 0.008 µg/mL
first compound 0.0008 µg/mL	0.785	0.79	0.739
first compound 0.006 µg/mL	0.269	0.349	0.17
